In patent US7855259B2, “Method for producing melt-processable fluororesin” (Asahi Glass Company, Limited, priority 2005, dated 2010):

Assay: Measurement of 1-octanol/water partition coefficient (LogPOW) by HPLC, OECD Test Guideline 117
Format: physicochemical
Conditions: for LogPOW: 1-octanol/water partition coefficient calculated from HPLC elution time, OECD Test Guideline 117, ODS column, acetonitrile/0.6 mass % HClO4 aq. 1/1, 40° C.; for bioaccumulation potential (indicated by LogPOW value as compared to APFO): judged from LogPOW compared to APFO
Protocol: In accordance with OECD Test Guideline 117, 1-octanol/water partition coefficient (LogPOW) of a fluorinated emulsifier was measured by using HPLC (high performance liquid chromatography).
Conditions for the measurement were as follows: column: TOSOH ODS-120T column (φ 4.6 mm×250 mm), eluent: acetonitrile/0.6 mass % of HClO4 aqueous solution=1/1 (vol/vol %), flow rate: […], sample amount: 300 μL, column temperature: 40° C., and detection light: UV 210 nm (WO2005-42593).
HPLC was carried out on standard substances (heptanoic acid, octanoic acid, nonanoic acid and decanoic acid) having known 1-octanol/water partition coefficients, and a calibration curve was prepared from the respective elution times and octanol/water partition coefficients of the respective standard substances. Based on this calibration curve, a value of partition coefficient (LogPOW) between 1-octanol and water was calculated from the elution time by HPLC of the fluorinated emulsifier.
Further, in general, in order to judge whether or not a chemical substance is apt to be accumulated in a living organism, a testing method for measurement of a partition coefficient (LogPOW) between 1-octanol and water, is stipulated. As the testing method, in addition to “Partition Coefficient (1-octanol/water) Shake Flask Method” as stipulated in OECD test guideline 107 and in Japanese Industrial Standards Z 7260-107 (2000), a HPLC method (high-performance liquid chromatography) as stipulated and published in OECD Test Guideline 117, is used. A compound having a large partition coefficient value has a large tendency for bioaccumulation, and a compound having a small value means a small tendency for bioaccumulation. In a case where the LogPOW value is less than 3.5, it is considered proper to judge that it is not a high-concentration, and bioaccumulation is also considered to be small.

| SMILES | LogPOW | bioaccumulation potential (indicated by LogPOW value as compared to APFO) |
| --- | --- | --- |
| N.O=C(O)C(F)(F)C(F)(F)C(F)(F)C(F)(F)C(F)(F)C(F)(F)C(F)(F)F [CF3(CF2)6COONH4, ammonium perfluorooctanoate] | 3.67 |  |
| N.O=C(O)C(F)(F)OC(F)(F)C(F)(F)OC(F)(F)C(F)(F)F [CF3CF2OCF2CF2OCF2COONH4] | 3.13 | low |
| N.O=C(O)C(F)(OC(F)(F)C(F)(OC(F)(F)C(F)(F)F)C(F)(F)F)C(F)(F)F (centres unmarked) [CF3CF2OCF(CF3)CF2OCF(CF3)COONH4] | 4.03 | high |
